Test results reported in article PMC6695845 (Molecules, 2019).
Where “and” joins values, the source holds several entries; their conditions need not be identical. Identical values can stand only once. Counter-ions that a name gives are not always drawn. Like-named read-outs stand apart in the source and are kept apart here.

Key:
[1] = biological target: T1, human α4β2 nAChR (Homo sapiens, UniProt P17787+P43681); experiment: [3H]cytisine competition binding on membrane homogenates of SH-EP-hα4β2 clonal cells; parameters: expressed in transfected cells; settings: mean ± SEM of four experiments
Method: First, we determined the half maximal inhibitory concentration (IC50) of the synthesized molecules for human α4β2 nAChR using [^3H]-cytisine ([^3H-Cyt]) as a radioligand. It is well known that [^3H-Cyt] binds to the agonist (orthosteric) site of α4β2 nACRs.
Figure 4 Effects of phenylpyrrolidine derivatives on binding of [^3H]cytisine to human α4β2 nAChRs. Data points represent the mean ± SEM of four experiments. Each experiment was carried out in triplicate. The radioligand concentration in all displacement studies was 1 nM. The concentration-inhibition data was analyzed non-linearly.
Membrane homogenates for [^3H]-Cyt binding studies were prepared from the SH-EP-h α4β2 clonal cell line, which express human α4β2 nAChRs. Cells were maintained in Dulbecco’s modified Eagle’s medium (Invitrogen, UK) supplemented with 5% fetal serum, 10% horse serum, 2 mM L-glutamine, 10 IU/mL penicillin, 10 μg/mL streptomycin, 2.5 μg/mL amphotericin-B, 0.25 mg/mL zeocin, and 0.13 mg/mL hygromycin.
Competition binding studies were performed on membrane homogenates prepared SH-EP-hα4β2 clonal cell line, using [^3H]cyt (PerkinElmer, UK), as previously described. Membrane homogenates were incubated at a final protein concentration of 30 to 50 µg per assay tube in a final volume of 250 µL of binding saline ([…]: 120 NaCl, 5 KCl, 1 MgCl2, 2.5 CaCl2, 50 Tris, pH 7.0) for 75 min at 4 °C with 1 nM [^3H]cyt. […] Bound and free fractions were separated by rapid filtration through Whatman GF/C filters presoaked in binding saline supplemented with 0.1% polyethyleneimine. Radioactivity was quantified by liquid scintillation spectrometry.

[2] = biological target: T1, human α4β2 nAChR; experiment: two-electrode voltage clamp on human α4β2 nAChR expressed in Xenopus laevis oocytes; format: cell-based; parameters: expressed in transfected cells; host or cells: Xenopus laevis oocytes (nuclear cDNA injection); settings: for agonist profile at human α4β2 nAChR: in words; for Imax: maximal current normalized to response to 1 mM ACh, mean ± SEM; for Emax: read-out: maximal response (efficacy) as % of the ACh Imax
Method: The functional effects of our compounds were tested on α4β2 nAChR heterologously expressed in Xenopus laevis oocytes. Experiments were carried out by using the two-electrode voltage clamp procedure.
Figure 5 Interaction of phenylpyrrolidine derivatives with human α4β2 nicotinic receptors expressed in Xenopus laevis oocytes. Whole cell currents in response to agonist application were measured by a two-electrode voltage clamp. Concentration-response curves show activation of whole cell currents by compounds 1, 2, 3, and 4. Each point represents data from four to five cells, normalized to the amplitude of the maximal responses of ACh, which was stimulated by 1 mM of ACh. The data are fitted to a single component Hill curve.
The α4β2 nAChRs (wild type) were expressed heterologously in defolliculated oocytes from Xenopus laevis, which were dissected from adult female X. laevis frogs (Nasco, Fort Atkinson, WI, USA). The Oxford Brookes University Animal Research Committee, in accordance with the guidelines of the 1986 Scientific Procedures Act of the United Kingdom, approved the care and use of X. laevis frogs in this study. A mixture of 1:1 of human of α4 and β2 subunits for α4β2 subtype cDNAs were injected into the nuclei of oocytes in a volume of 23 nL/oocyte by using a Nanoject Automatic Oocyte Injector (Drummond Scientific, Broomall, PA, USA). After injection, oocytes were incubated at 17 °C in OPS (NaCl, KCl, CaCl2, MgCl2, pH 7.4) supplemented with a mixture of penicillin-streptomycin-anphotericin-B (10,000 IU/mL penicillin, 10 mg/mL streptomycin, and 25 µg amphotericin-B/mL) and amikacin (100 µg/mL). Experiments were performed on oocytes 2 to 6 days after injection.
Electrophysiological recording from oocyte post-injection was made at room temperature using a standard two electrode voltage clamp technique with an automatic multichannel system (HiClamp, Multichannel Systems, Reutlingen, Germany). Oocytes were impaled by two borosilicate capillary glass (Harvard Instrument: 150 TF GC) microelectrodes filled with 3 M KCl (0.3–2.0 MΩ) and voltage-clamped at −60 mV. During recording, oocytes were perfused with OPS (oocytes perfusion solution), as described in the manual of HiClamp. Agonist responses were normalized to the amplitude of the responses induced by 1 mM ACh, which is the maximal ACh concentration at α4β2 nAChRs. Between each successive ACh or compound application, the cell was perfused with OPS solution for 3 min to allow drug clearance and prevent receptor desensitization.

[3] = biological target: T1, human α4β2 nAChR; settings: nicotine, included for comparison, no SEM, not in Figure 5; cited from earlier work
[4] = displacement of 1 nM [3H]cytisine, read-out: α4β2 IC50
[5] = Xenopus laevis oocytes, -60 mV, mean ± SEM of four to five experiments, read-out: α4β2 EC50
[6] = relative to 1 mM ACh, Xenopus laevis oocytes

Q: Which melting point does the source give for CN1CCC[C@H]1COc1cccc(N)c1 (as salt: hydrochloride) [Compound 2, (S)-1-methyl-2-(3′-aminophenoxymethyl)pyrrolidine Ether] here?
A: Its melting point is 198 to 200 °C.

Q: What does the source list for CN1CCC[C@H]1COc1cccc(Br)c1 [Compound 4, (S)-1-methyl-2-(3′-bromophenoxymethyl)pyrrolidine Ether]?
A: IC50 ([1]; α4β2 IC50, displacement of 1 nM [3H]cytisine): 0.188 ± 0.007 µM; EC50 [2]: 56.7 ± 1.7 µM; agonist profile at human α4β2 nAChR ([2]; Xenopus laevis oocytes): partial agonist; Imax ([2]; Xenopus laevis oocytes): 0.13 ± 0.01; Emax [2]: 13%

Q: For CN1CCC[C@H]1c1cccnc1 [Nicotine], which Imax [3] is on record?
A: The Imax was 1.00.

Q: Which IC50 [1, 4] does the source give for CN1CCC[C@H]1COc1ccccc1 [Compound 1, (S)-1-methyl-2-(phenoxymethyl)pyrrolidine Ether] here?
A: Its IC50 is 0.204 ± 0.006 µM.

Q: And the EC50 [2, 5]?
A: Its EC50 is 68.8 ± 1.3 µM.

Q: What about the “agonist profile at human α4β2 nAChR” value ([2]; Xenopus laevis oocytes) of the same compound?
A: Its value is “partial agonist”.

Q: For CN1CCC[C@H]1COc1cccc(Cl)c1 [Compound 3, (S)-1-methyl-2-(3′-Chlorophenoxymethyl)pyrrolidine Ether], which IC50 [1, 4] is on record?
A: The IC50 was 0.221 ± 0.01 µM.

Q: What about the EC50 [2, 5] of the same compound?
A: The EC50 was 63.3 ± 2.1 µM.

Q: What about the “agonist profile at human α4β2 nAChR” value ([2]; Xenopus laevis oocytes) of the same compound?
A: Its value is “partial agonist”.

Q: What about the Imax ([2]; Xenopus laevis oocytes) of the same compound?
A: The Imax was 0.29 ± 0.01.

Q: And the Emax [2, 6]?
A: The Emax was 29%.

Q: With CN1CCC[C@H]1COc1cccc(N)c1 [Compound 2, (S)-1-methyl-2-(3′-aminophenoxymethyl)pyrrolidine Ether] as the compound, how does the IC50 [1, 4] read?
A: The IC50 was 0.013 µM and 0.0138 µM.

Q: And the EC50 [2, 5]?
A: The EC50 was 10.8 ± 0.7 µM.

Q: And the “agonist profile at human α4β2 nAChR” value ([2]; Xenopus laevis oocytes)?
A: The value was “full agonist”.

Q: What about the “fold more potent than compound 1 (EC50)” value ([2]; Xenopus laevis oocytes, ratio of EC50 values) of the same compound?
A: The value was “about seven-fold”.

Q: What about the Imax ([2]; Xenopus laevis oocytes) of the same compound?
A: The Imax was 1.00 ± 0.01.

Q: What about the Emax [2, 6] of the same compound?
A: The Emax was 100%.
